Measurements taken from patent publication US20260184710A1, “CASITAS B-LINEAGE LYMPHOMA PROTOONCOGENE B (CBL-B) DEGRADING COMPOUNDS AND ASSOCIATED METHODS OF USE” (Arvinas Operations, Inc., priority 2022, published 2026).

What was measured:
Cbl-b [1] = target: T1, Cbl-b (Homo sapiens, UniProt Q13191); assay: Cbl-b Degradation Method B (Nano-Glo HiBiT lytic detection); format: cell-based; details: Cbl-b-HiBit KI Jurkat Cells, incubated at least 6-24 hours; for DC50: half maximal degradation, read-out: Cbl-b Degredation Method B IC50; for Dmax / Cbl-b Degredation Method B Dmax (%): maximum degradation observed; for Dmax: read-out: Cbl-b Degredation Method B Dmax (%)
T1 construct: Cbl-b-HiBit KI Jurkat Cells were purchased from Promega; host or cells: Cbl-b-HiBiT knock-in Jurkat cells
Outline: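 An 11-point, 3-fold compound dilution was applied for 6-24 hours to Jurkat cells carrying HiBiT-tagged endogenous Cbl-b. Lytic HiBiT luminescence quantified residual protein. Outputs are DC50 and Dmax relative to DMSO control.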

Cbl-b [2] = target: T1, Cbl-b; assay: Cbl-b Degradation Method A (FACS, anti-Cbl-b antibody staining); format: cell-based; details: Cbl-b-HiBit KI Jurkat Cells, incubated at least 20 hours; for DC50: half maximal degradation, read-out: Cbl-b Degredation Method A IC50; for Dmax: Jurkat, read-out: Cbl-b Degredation Method A Dmax (%)
Outline: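 Readout is flow cytometry of fixed, permeabilized cells immunostained for Cbl-b (primary 1:200, AF488 secondary). Cells were Cbl-b-HiBit knock-in Jurkat, exposed to compound ≥20 h at 37 °C; half-maximal degradation concentration (DC50) and maximal degradation (Dmax) calculated relative to control.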

T1 sequence (Q13191 whole entry): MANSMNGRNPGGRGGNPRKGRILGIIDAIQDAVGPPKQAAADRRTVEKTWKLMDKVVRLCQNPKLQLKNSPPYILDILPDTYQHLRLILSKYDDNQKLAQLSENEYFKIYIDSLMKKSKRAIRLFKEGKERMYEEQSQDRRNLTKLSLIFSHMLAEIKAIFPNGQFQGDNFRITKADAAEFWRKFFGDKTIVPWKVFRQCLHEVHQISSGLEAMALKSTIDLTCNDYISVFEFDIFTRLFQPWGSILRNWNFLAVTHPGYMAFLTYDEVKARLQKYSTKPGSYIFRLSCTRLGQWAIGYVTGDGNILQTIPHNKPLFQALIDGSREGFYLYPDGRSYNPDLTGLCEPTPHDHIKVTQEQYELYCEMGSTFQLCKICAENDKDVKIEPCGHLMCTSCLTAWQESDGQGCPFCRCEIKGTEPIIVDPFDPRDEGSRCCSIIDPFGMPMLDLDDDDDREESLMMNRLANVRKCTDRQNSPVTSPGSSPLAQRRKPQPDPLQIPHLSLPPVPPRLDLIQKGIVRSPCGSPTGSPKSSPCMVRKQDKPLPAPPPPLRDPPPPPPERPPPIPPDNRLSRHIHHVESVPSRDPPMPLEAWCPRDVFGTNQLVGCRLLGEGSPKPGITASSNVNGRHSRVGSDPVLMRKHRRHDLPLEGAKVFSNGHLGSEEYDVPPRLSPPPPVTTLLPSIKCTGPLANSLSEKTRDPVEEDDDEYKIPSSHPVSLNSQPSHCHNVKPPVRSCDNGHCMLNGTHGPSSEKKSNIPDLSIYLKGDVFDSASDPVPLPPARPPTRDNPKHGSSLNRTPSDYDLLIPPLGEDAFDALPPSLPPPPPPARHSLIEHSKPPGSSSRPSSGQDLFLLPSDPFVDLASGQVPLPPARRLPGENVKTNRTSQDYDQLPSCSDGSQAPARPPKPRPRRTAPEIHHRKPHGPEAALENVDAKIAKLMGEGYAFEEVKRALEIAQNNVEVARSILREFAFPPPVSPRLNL

Row | SMILES | DC50 (Cbl-b [1]) | Dmax (Cbl-b [1]) | DC50 (Cbl-b [2]) | Dmax (Cbl-b [2]; maximum degradation observed) | Cbl-b Degredation Method B Dmax (%) (Cbl-b [1]) | Cbl-b Degredation Method A Dmax (%) (Cbl-b [2]; maximum degradation observed)
1 | Cn1cnnc1CC1(c2cccc(N3Cc4c(cc(CN5CCC[C@H](CN6CCC(CN7CCC(CN8CCN(c9ccc%10c(c9F)CN(C9CCC(=O)NC9=O)C%10=O)CC8)CC7)CC6)C5)cc4C(F)(F)F)C3=O)c2)COC1 (stereo partly drawn) [Example 74, 3-{4-fluoro-5-[4-({1-[(1-{[(3R)-1-{[2-(3-{3-[(4-methyl-4H-1,2,4-triazol-3-yl)methyl]oxetan-3-yl}phenyl)-3-oxo-7-(trifluoromethyl)-2,3-dihydro-1H-isoindol-5-yl]methyl}piperidin-3-yl]methyl}piperidin-4-yl)methyl]piperidin-4-yl}methyl)piperazin-1-yl]-1-oxo-2,3-dihydro-1H-isoindol-2-yl}piperidine-2,6-dione] | < 5 nM | > 70% | 5 to 50 nM | > 70% |  | 
2 | Cn1cnnc1CC1(c2cccc(N3Cc4c(cc(N5CC6(CCN(Cc7ccc8c(c7)C(=O)N(C7CCC(=O)NC7=O)C8=O)CC6)C5)cc4C(F)(F)F)C3=O)c2)COC1 (stereo not drawn) [Example 130, 2-(2,6-dioxopiperidin-3-yl)-5-({2-[2-(3-{3-[(4-methyl-4H-1,2,4-triazol-3-yl)methyl]oxetan-3-yl}phenyl)-3-oxo-7-(trifluoromethyl)-2,3-dihydro-1H-isoindol-5-yl]-2,7-diazaspiro[3.5]nonan-7-yl}methyl)-2,3-dihydro-1H-isoindole-1,3-dione] | > 500 nM |  | > 500 nM |  |  | 
3 | Cn1cnnc1CC1(c2cccc(N3Cc4c(cc(CN5CCCC(N6CC7(CCN(c8ccc9c(c8)C(=O)N(C8CCC(=O)NC8=O)C9=O)CC7)C6)C5)cc4C(F)(F)F)C3=O)c2)COC1 (stereo not drawn) [Example 108, 2-(2,6-dioxopiperidin-3-yl)-5-[2-(1-{[2-(3-{3-[(4-methyl-4H-1,2,4-triazol-3-yl)methyl]oxetan-3-yl}phenyl)-3-oxo-7-(trifluoromethyl)-2,3-dihydro-1H-isoindol-5-yl]methyl}piperidin-3-yl)-2,7-diazaspiro[3.5]nonan-7-yl]-2,3-dihydro-1H-isoindole-1,3-dione] | 5 to 50 nM | 35 to 70% | 5 to 50 nM | < 35% |  | 
4 | Cn1cnnc1CC1(c2cccc(N3Cc4c(cc(N5CC6(CN(c7ccc8c(c7)C(=O)N(C7CCC(=O)NC7=O)C8=O)C6)C5)cc4C(F)(F)F)C3=O)c2)COC1 (stereo not drawn) [Example 123, 2-(2,6-dioxopiperidin-3-yl)-5-{6-[2-(3-{3-[(4-methyl-4H-1,2,4-triazol-3-yl)methyl]oxetan-3-yl}phenyl)-3-oxo-7-(trifluoromethyl)-2,3-dihydro-1H-isoindol-5-yl]-2,6-diazaspiro[3.3]heptan-2-yl}-2,3-dihydro-1H-isoindole-1,3-dione] | > 500 nM |  | 50 to 500 nM | 35 to 70% |  | 
5 | Cn1cnnc1CC1(c2cccc(N3Cc4c(cc(N5CC6(CCN(CC7CCN(c8cccc9c8CN(C8CCC(=O)NC8=O)C9=O)CC7)CC6)C5)cc4C(F)(F)F)C3=O)c2)COC1 (stereo not drawn) [Example 119, 3-{4-[4-({2-[2-(3-{3-[(4-methyl-4H-1,2,4-triazol-3-yl)methyl]oxetan-3-yl}phenyl)-3-oxo-7-(trifluoromethyl)-2,3-dihydro-1H-isoindol-5-yl]-2,7-diazaspiro[3.5]nonan-7-yl}methyl)piperidin-1-yl]-1-oxo-2,3-dihydro-1H-isoindol-2-yl}piperidine-2,6-dione] | < 5 nM | < 35% | 5 to 50 nM | < 35% |  | 
6 | COc1c(N2CCC(O[C@H]3CC[C@H](CN4CCC5(CC4)CN(c4cc6c(c(C(F)(F)F)c4)CN(c4cccc(C7(Cc8nncn8C)COC7)c4)C6=O)C5)CC3)CC2)ccc2c1CN(C1CCC(=O)NC1=O)C2=O (stereo partly drawn) [Example 169, 3-[4-methoxy-1-oxo-5-(4-{[(1r,4r)-4-({2-[2-(3-{3-[(4-methyl-4H-1,2,4-triazol-3-yl)methyl]oxetan-3-yl}phenyl)-3-oxo-7-(trifluoromethyl)-2,3-dihydro-1H-isoindol-5-yl]-2,7-diazaspiro[3.5]nonan-7-yl}methyl)cyclohexyl]oxy}piperidin-1-yl)-2,3-dihydro-1H-isoindol-2-yl]piperidine-2,6-dione] | < 5 nM | > 70% | 5 to 50 nM | > 70% |  | 
7 | Cn1cnnc1CC1(c2cccc(N3Cc4c(cc(N5CCN(C[C@H]6CC[C@H](OC7CCN(c8ccc9c(c8F)CN(C8CCC(=O)NC8=O)C9=O)CC7)CC6)CC5)cc4C(F)(F)F)C3=O)c2)COC1 (stereo partly drawn) [Example 139, 3-[4-fluoro-1-oxo-5-(4-{[(1r,4r)-4-({4-[2-(3-{3-[(4-methyl-4H-1,2,4-triazol-3-yl)methyl]oxetan-3-yl}phenyl)-3-oxo-7-(trifluoromethyl)-2,3-dihydro-1H-isoindol-5-yl]piperazin-1-yl}methyl)cyclohexyl]oxy}piperidin-1-yl)-2,3-dihydro-1H-isoindol-2-yl]piperidine-2,6-dione] | 5 to 50 nM | 35 to 70% | 5 to 50 nM | 35 to 70% |  | 

Second part, the compound after the results:

Row | DC50 (Cbl-b [1]) | Dmax (Cbl-b [1]) | DC50 (Cbl-b [2]) | Dmax (Cbl-b [2]; maximum degradation observed) | Cbl-b Degredation Method B Dmax (%) (Cbl-b [1]) | Cbl-b Degredation Method A Dmax (%) (Cbl-b [2]; maximum degradation observed) | SMILES
8 | < 5 nM |  | 50 to 500 nM | > 70% | C (C ≤ 35) |  | Cn1cnnc1CC1(c2cccc(N3Cc4c(cc(CN5CCN(C[C@H]6CC[C@H](OC7CCN(c8ccc9c(c8)CC(=O)N9C8CCC(=O)NC8=O)CC7)CC6)CC5(C)C)cc4C(F)(F)F)C3=O)c2)CC(C#N)C1 (stereo partly drawn) [Example 316, (1r**,3r**)-3-(3-{6-[(2,2-dimethyl-4-{[(1r*,4r*)-4-({1-[1-(2,6-dioxopiperidin-3-yl)-2-oxo-2,3-dihydro-1H-indol-5-yl]piperidin-4-yl}oxy)cyclohexyl]methyl}piperazin-1-yl)methyl]-1-oxo-4-(trifluoromethyl)-2,3-dihydro-1H-isoindol-2-yl}phenyl)-3-[(4-methyl-4H-1,2,4-triazol-3-yl)methyl]cyclobutane-1-carbonitrile]
9 | < 5 nM | 35 to 70% | 5 to 50 nM | 35 to 70% |  |  | CC1CN(C[C@H]2CC[C@H](OC3CCN(c4ccc5c(n4)C(C)N(C4CCC(=O)NC4=O)C5=O)CC3)CC2)CCN1Cc1cc2c(c(C(F)(F)F)c1)CN(c1cccc(C3(Cc4nncn4C)CCC3)c1)C2=O (stereo partly drawn) [Example 209, 3-[7-methyl-5-oxo-2-(4-{[(1r,4r)-4-[(3-methyl-4-{[2-(3-{1-[(4-methyl-4H-1,2,4-triazol-3-yl)methyl]cyclobutyl}phenyl)-3-oxo-7-(trifluoromethyl)-2,3-dihydro-1H-isoindol-5-yl]methyl}piperazin-1-yl)methyl]cyclohexyl]oxy}piperidin-1-yl)-5H,6H,7H-pyrrolo[3,4-b]pyridin-6-yl]piperidine-2,6-dione]
10 | < 5 nM |  | 50 to 500 nM |  | C (C ≤ 35) | B (35 < B < 70) | C[C@@H]1c2nc(N3CCC(O[C@H]4CC[C@H](CN5CCN(Cc6cc7c(c(C(F)(F)F)c6)CN(c6cccc(C8(Cc9nncn9C)CC(C#N)C8)c6)C7=O)C(C)(C)C5)CC4)CC3)ccc2C(=O)N1C1CCC(=O)NC1=O (single isomer, unassigned) [Example 307, (1r***,3r***)-3-(3-{6-[(2,2-dimethyl-4-{[(1r**,4r**)-4-({1-[(7R*)-6-(2,6-dioxopiperidin-3-yl)-7-methyl-5-oxo-5H,6H,7H-pyrrolo[3,4-b]pyridin-2-yl]piperidin-4-yl}oxy)cyclohexyl]methyl}piperazin-1-yl)methyl]-1-oxo-4-(trifluoromethyl)-2,3-dihydro-1H-isoindol-2-yl}phenyl)-3-[(4-methyl-4H-1,2,4-triazol-3-yl)methyl]cyclobutane-1-carbonitrile]
11 | < 5 nM | 35 to 70% | 5 to 50 nM | 35 to 70% |  |  | CC1c2nc(N3CCC(O[C@H]4CC[C@H](CN5CCC6(CCN(c7cc8c(c(C(F)(F)F)c7)CN(c7cccc([C@]9(Cc%10nncn%10C)C[C@@H](C#N)C9)c7)C8=O)C6)C5)CC4)CC3)ccc2C(=O)N1C1CCC(=O)NC1=O (stereo partly drawn) [Example 179, (1r,3r)-3-[(4-methyl-4H-1,2,4-triazol-3-yl)methyl]-3-{3-[1-oxo-6-(7-{[(1r,4r)-4-({1-[6-(2,6-dioxopiperidin-3-yl)-7-methyl-5-oxo-5H,6H,7H-pyrrolo[3,4-b]pyridin-2-yl]piperidin-4-yl}oxy)cyclohexyl]methyl}-2,7-diazaspiro[4.4]nonan-2-yl)-4-(trifluoromethyl)-2,3-dihydro-1H-isoindol-2-yl]phenyl}cyclobutane-1-carbonitrile]
12 | 5 to 50 nM |  | 5 to 50 nM | 35 to 70% | C (C ≤ 35) |  | CC1c2nc(N3CCC(CN4CCN(CC5CCN(Cc6cc7c(c(C(F)(F)F)c6)CN(c6cccc([C@]8(Cc9nncn9C)C[C@@H](C#N)C8)c6)C7=O)C6(CC6)C5)CC4)CC3)ccc2C(=O)N1C1CCC(=O)NC1=O (stereo partly drawn) [Example 310, (1r,3r)-3-(3-{6-[(7-{[4-({1-[6-(2,6-dioxopiperidin-3-yl)-7-methyl-5-oxo-5H,6H,7H-pyrrolo[3,4-b]pyridin-2-yl]piperidin-4-yl}methyl)piperazin-1-yl]methyl}-4-azaspiro[2.5]octan-4-yl)methyl]-1-oxo-4-(trifluoromethyl)-2,3-dihydro-1H-isoindol-2-yl}phenyl)-3-[(4-methyl-4H-1,2,4-triazol-3-yl)methyl]cyclobutane-1-carbonitrile]
